Converted amounts (≈) assume the structure as drawn. Like-named read-outs stand apart in the source and are kept apart here.
Key:
E. coli DH10B recipient = assay: CLSI broth microdilution MIC, E. coli DH10B recipient; format: cell-based
Description: (§1) Four compounds, including Compound No. 8 of the present application (RX-04D) were tested against (i) multiresistant Enterobacteriaceae and Acinetobacter with carbapenemases; (ii) Enterobacteriaceae with MCR-1; and (iii) P. aeruginosa with altered efflux (see Tables 4 and 5). In this case, MCR-1 is relevant because its activity reduces the negative charge of lipopolysaccharides, potentially affecting binding of poly-basic molecules such as the compounds tested herein, as well as polymyxins.
(§2) MICs of the four tested compounds and comparators (amikacin, cefepime, colistin, meropenem and tigecyline) were determined by CLSI broth microdilution using pre-prepared plates (Trek Diagnostic Systems) (CLSI Approved Standard M7-A10). Carbapenemase and mcr-1 genes were detected by PCR or sequencing. Efflux levels in P. aeruginosa isolates were inferred by interpretive reading of antibiogram data.

[1] = tested on: Enterobacteriaceae (n=68); assay: CLSI broth microdilution MIC, Enterobacteriaceae panel; format: cell-based; settings: for peak of unimodal MIC distribution: 68 Enterobacteriaceae
Description: as §1, §2

[2] = tested on: E. coli DH10B mcr-1 transformant; assay: CLSI broth microdilution MIC, E. coli DH10B mcr-1 transformant; format: cell-based
Description: as §1, §2

P. aeruginosa (n=20) = assay: CLSI broth microdilution MIC, P. aeruginosa; format: cell-based; settings: for share of MICs ≥16 mg/L: P. aeruginosa isolates, stated jointly for analogues C and D; for MIC: Pseudomonas aeruginosa
Description: as §1, §2

[3] = tested on: A. baumannii isolates (n=10); assay: CLSI broth microdilution MIC, A. baumannii; format: cell-based; settings: for relative activity among analogues: 10 A. baumannii; for MIC: Acinetobacter baumannii, A. baumannii
Description: as §1, §2

[4] = tested on: Staphylococcus aureus (S. aureus) 11540 strain; assay: standard microdilution MIC, S. aureus; format: cell-based; settings: Staphylococcus aureus
Description: (§3) The in vitro activity of the compounds of the present disclosure can be determined. Antimicrobial testing is typically performed to determine the minimum inhibitory concentration (MIC). Minimum inhibitory concentrations (MICs) are determined by the microdilution method in a final volume of 100 μl according to protocols outlined by The Clinical and Laboratory Standards Institute (CLSI). Performance standards for reference strains are assessed within the same experimental design to maintain quality control. See, for example, Clinical Laboratory Standards Institute: Methods for dilution antimicrobial susceptibility tests for bacteria that grow aerobically M7-A8. Approved Standard-Eighth Edition. Wayne, Pa.: CLSI; December 2008; and Clinical Laboratory Standards Institute: Performance Standards for Antimicrobial Susceptibility Testing M100-S20; Approved Standard-Twentieth Edition. Wayne, Pa.: CLSI; June 2010.
(§4) The compounds of the present disclosure were tested for antimicrobial activity. The Compounds 1-23 were run against Eschericia coli (E. coli) strain ATCC25922 and against Staphylococcus aureus (S. aureus) 11540 strain using a standard microdilution assay to determine minimum inhibitory concentrations (MICs). […] It will be recognized by one skilled in the art that the compounds can be assessed against other bacterial organisms and that the presentation of data for activity against Eschericia coli and Staphylococcus aureus are illustrative and in no way is intended to limit the scope of the present disclosure. The compounds of the present disclosure can be assayed against a range of other microorganisms depending upon the performance activity desired to be gathered. Furthermore, the “+” and “−” representation and the selection of a cutoff value of 16 micrograms/mL is also illustrative and in no way is intended to limit the scope of the present disclosure.

[5] = tested on: Chinese hamster ovary (CHO) cells; assay: cytotoxicity against CHO cell line (Cell Titer Blue); format: cell-based; settings: Cricetulus griseus, 24 h, CHO-K1 cells, 24 hours incubation, percent cell kill
Description: The compounds of the present disclosure were tested for cytotoxicity against Chinese hamster ovary (CHO) cells.
The assay was performed by seeding CHO—K1 in F12K medium containing 13.33% Fetal Bovine Serum […]. 37.5 μl of cell suspension at a concentration of 9,500 cells/well was plated into each column of a 384-well black clear bottom assay plate with the exception of a negative (no cell) control column, and allowed to adhere for 2 hours. The culture media was then removed from the 175 cm^2 flask(s) and the cell monolayer washed with 10 mL of Phosphate Buffered Saline PBS. 3 mL of Cellstripper™ was then added and the flask was incubated for approximately 5 min at 37° C. The cells were dissociated by agitation and 7 mL of F 12K medium containing 10% FBS was added to the flask. A homogeneous cell suspension was obtained by trituration of the flask. The cells were counted with a hemocytometer by diluting an aliquot of the cell suspension in PBS with 0.4% trypan blue. Typically, a ratio of 100 μl cell suspension to 1800 μl PBS to 100 μl trypan blue was used.
The volume of cell suspension containing the number of cells needed to seed the plate(s) (15.2 mL containing 3.8×10^6 cells) was calculated and transferred to a 50 mL centrifuge tube with the appropriate volume of media. 37.5 μl of cells were added to each well of the 384 well plate except for the negative (no cell) control column. A cytotoxicity 100-fold dilution plate was then prepared by manually pipetting 18 μl of 100% DMSO into two columns of an empty low volume dilution plate. 2 μl of a 50 mM solution of compounds 1-23 from the translation plate were manually pipetted into the corresponding columns of the 100-fold dilution plate. 10 μl of 100% DMSO was manually pipetted into all remaining columns of the 100-fold plate.
A 4-fold cytotoxicity plate was prepared beforehand by manually pipetting 48 μl of F12K media (without DMSO and without FBS) into each well of a matrix 384 well plate. The test samples in the 100-fold dilution plate were mixed and diluted. Ten 2-fold dilutions were performed for each compound in duplicate. The 384 cannula array then transferred 2 μl to the 48 μl of media in the cytotoxicity 4-fold dilution plate. The array was then mixed and 12.5 μl of samples from the cytotoxicity 4-fold dilution plate were transferred to the 37.5 μl of cells and media. The final top concentration of samples at this point in the procedure was 50 μM with 10 subsequent 1:2 dilutions down to […]. The final DMSO concentration were 1% and the final concentration of FBS was 10%.
Cycloheximide was run as a control. Specifically, Cycloheximide was diluted to 0.1 mM from 100 mM stock […] and was added to the cytotoxicity 100-fold plate. Upon addition to the cell plate, a range of 1 μM to 1 nM of cycloheximide was run.
A column separate from the one (referred to above) that served as the negative control was used for cell control wells to which only media was added.
The plates were then incubated for 24 hours at 37° C. and 5% CO2. […] The two columns used earlier to prepare the 100-fold dilution plate by pipetting 18 μl of 100% DMSO contained the samples tested at 200 μM. After the 24 hour incubation period, the 4 μl of Cell Titer blue was added to each well using a Multichannel Matrix pipettor. The plates were returned to the incubator and incubated for an additional 5 hours. Fluorescence (530 nm excitation wavelength/590 nm emission wavelength) was measured on a Wallac Victor microplate reader.
Cell viability was assessed fluorometrically after a 5 hour incubation with resazurin (Cell Titer Blue™), which is reduced by living cells to the fluorescent resorufin.
The average fluorescence for the negative control was determined to obtain the average blank fluorescence. The average blank fluorescence was subtracted from the fluorescence values obtained for all the test agents. The resulting values are the corrected fluorescence. […]

[6] = tested on: Eschericia coli (E. coli) strain ATCC25922; assay: standard microdilution MIC, E. coli; format: cell-based, Escherichia coli; settings: Escherichia coli
Description: as §3, §4

[7] = tested on: Enterobacteriaceae with MCR-1 (MCR-1 isolates, n=14); assay: CLSI broth microdilution MIC, MCR-1 isolates; format: cell-based; settings: all MCR-1 isolates (n=14)
Description: as §1, §2

CPE (n=36) = assay: CLSI broth microdilution MIC, carbapenemase producers (CPE); format: cell-based, Enterobacteriaceae; settings: 35/36 (97%) for RX-04A
Description: as §1, §2

[8] = Escherichia coli, DH10BRECIPIENT, read-out: MIC

| Molecule | MIC (E. coli DH10B recipient; [8]) [µg/mL] | peak of unimodal MIC distribution [1] [µg/mL] | MIC ([2]; Escherichia coli) [µg/mL] | MIC [4] [µg/mL] | IC50 [5] [µM] | MIC [6] [µg/mL] | other results |
| --- | --- | --- | --- | --- | --- | --- | --- |
| CC(=N)NCC[C@@H]1CCC[C@@H](c2ccc(-n3cc4cc(-c5cc(CCC[C@@H](N)CO)cc(Cl)c5F)[nH]c4nc3=O)cc2F)N1 [RX-04B] | 0.5 (≈ 0.799 µM) | 1 | 0.5 (≈ 0.799 µM) | – | – | – | – |
| C[C@H](N)CCCc1cc(Cl)c(F)c(-c2cc3cn(-c4ccc([C@@H]5CCC[C@@H](CCNC(=N)CN)N5)cc4)c(=O)nc3[nH]2)c1 [Compound 8] | 1 (≈ 1.65 µM) | 2 | 1 (≈ 1.65 µM) | ≤ 16 | 95.2 | ≤ 16 | share of MICs ≥16 mg/L (P. aeruginosa (n=20)): 48%; relative activity among analogues [3]: least active analogue |
| CSc1cc(-n2cc3cc(-c4cc(CCC[C@@H](N)C5CC5)cc(Cl)c4F)[nH]c3nc2=O)ccc1[C@@H]1CCC[C@@H](CCNC(C)=N)N1 [RX-04C] | 0.5 (≈ 0.753 µM) | 2 | 0.5 (≈ 0.753 µM) | – | – | – | share of MICs ≥16 mg/L (P. aeruginosa (n=20)): 48% |
| N=C(CN)NCC[C@@H]1CCC[C@@H](c2ccc(-n3cc4cc(-c5cc(CCC[C@@H](N)C6CC6)cc(Cl)c5F)[nH]c4nc3=O)cc2F)N1CCCF [Compound 47] | – | – | – | ≤ 16 | 50.5 | ≤ 16 | – |
| CNCC(=N)NCC[C@@H]1CCC[C@@H](c2ccc(-n3cc4cc(-c5cc(CCC[C@H](C)N)cc(Cl)c5F)[nH]c4nc3=O)cc2)N1 [Compound 67] | – | – | – | ≤ 16 | > 100 | ≤ 16 | – |
| C[C@H](N)CCCc1cc(Cl)c(F)c(-c2cc3cn(-c4ccc([C@@H]5CCC[C@@H](CCNC(=N)[C@@H](N)CO)N5)cc4)c(=O)nc3[nH]2)c1 [Compound 57] | – | – | – | ≤ 16 | > 100 | ≤ 16 | – |
| C[C@H](N)CCCc1cc(Cl)c(F)c(-c2cc3cn(-c4ccc([C@@H]5CCC[C@@H](CCNC(=N)CN)N5CCCF)c(F)c4)c(=O)nc3[nH]2)c1 [Compound 46] | – | – | – | ≤ 16 | > 100 | ≤ 16 | – |
| C[C@H](N)CCCc1cc(-c2cc3cn(-c4ccc([C@@H]5CCC[C@@H](CCNC(=N)CN)N5)cc4)c(=O)nc3[nH]2)ccc1C(F)(F)F [Compound 21] | – | – | – | ≤ 16 | > 100 | ≤ 16 | – |
| C=C[C@@H](CCNC(=N)CN1CCSCC1)NCc1ccc(-n2cc3cc(-c4cc(CCC[C@H](C)N)cc(Cl)c4F)[nH]c3nc2=O)cc1 [Compound 7] | – | – | – | ≤ 16 | > 100 | ≤ 16 | – |
| C[C@H](N)CCCc1cc(OC(F)(F)F)c(F)c(-c2cc3cn(-c4ccc([C@@H]5CCC[C@@H](CCNC(=N)N)N5)cc4)c(=O)nc3[nH]2)c1 [RX-04A] | 0.25 (≈ 0.389 µM) | 1 | 0.25 (≈ 0.389 µM) | – | – | – | change of MIC with elevated efflux (P. aeruginosa (n=20); P. aeruginosa isolates with elevated efflux): not raised; MIC (P. aeruginosa (n=20); 19/20 (95%) P. aeruginosa isolates, read-out: MICs): 1 to 4 µg/mL (≈ 1.56 to 6.22 µM); MIC (P. aeruginosa (n=20); P. aeruginosa, summary, read-out: MICs mostly): 1 to 4 µg/mL (≈ 1.56 to 6.22 µM); relative activity among analogues [3]: lowest MICs; MIC ([3]; 7/10 values, read-out: MICs): 1 to 2 µg/mL (≈ 1.56 to 3.11 µM); MIC ([3]; summary, read-out: MICs mostly): 1 to 2 µg/mL (≈ 1.56 to 3.11 µM); MIC ([1]; 67/68 (>98%) of Enterobacteriaceae, read-out: MICs): 0.25 to 2 µg/mL (≈ 0.389 to 3.11 µM); MIC ([1]; Enterobacteriaceae, summary, read-out: MICs mostly): 1 to 2 µg/mL (≈ 1.56 to 3.11 µM); MIC relative to MIC for E. coli ATCC 25922 [7]: ≤ 2 fold; MIC relative to MIC for E. coli ATCC 25922 (CPE (n=36)): ≤ 4 fold |
| colistin [reference compound] | – | – | – | – | – | – | MIC (E. coli DH10B recipient): 0.25 µg/mL; MIC ([2]; E. coli DH10B MCR-1 Transformant): 4 µg/mL |

Reference: US10815237B2, “Antimicrobials and methods of making and using same” (BIOVERSYS AG, priority 2016, dated 2020)
